# According to paper PMC12993615 (The journal of pain, 2024):
# What was measured:
# [1] = Prevention of OIPN, body weight; assay type: in vivo, male Sprague Dawley rats; details: 10 mg/kg BID, P < .05
# Description: (§1) Pain measurements were made on Days 5/6 (when neuropathy has normally developed) and at the end of the study. […] Terminal plasma samples were taken for bioanalysis and proteomics (Somalogic). Brain regions involved in pain processing, that is, prefrontal cortex (PFC), periaqueductal grey (PAG), whole spinal cords (SC), and L4-L6 dorsal root ganglia, were collected for lipidomic and genomic (Genewiz, China) analyses.
# [2] = Terminal plasma levels, OIPN prevention study; assay type: in vivo, male Sprague Dawley rats
# Description: as §1
# [3] = system: oxaliplatin-induced mechanical allodynia; assay: Prevention of OIPN, paw withdrawal threshold; assay type: in vivo, male Sprague Dawley rats
# Protocol: (§2) Male Sprague Dawley rats (150–210 g) were housed in groups of 4 in intra-ventilated Perspex home cages. Humidity, temperature (21 ± 1 °C), and lighting (light-dark cycle of 12:12 hours) were controlled and maintained in the home cages, with food and water available ad libitum. Rats acclimatised to the home cages for at least 1 week. All experiments were carried out according to the Animals (Scientific Procedures) Act, 1986 (U.K. Government Home Office). The study was performed under the Home Office project licence number PP0847012. OIPN was established with a single dose of OXA (10 mg/kg, IP).
# as §1
# Tactile allodynia (primary outcome measure) was assessed using paw withdrawal threshold (PWT), a measure of pain sensitivity. PWT was evaluated using calibrated von-Frey monofilaments (Touch-Test Sensory Evaluator; Scientific Marketing Associates) applied to the plantar surface of the left hind paw. PWT was determined by increasing and decreasing stimulus intensity and estimated using Dixon’s up-down method.[38],[39]
# To acquire baseline readings, pain behaviour was assessed on 3 consecutive days (Days −3, −2, −1). The mean of Day −2 and Day −1 was considered the healthy baseline (HBL) prior to OIPN induction. On Days 5 and 6 after OXA injection, thresholds were reassessed. The mean of Days 5 and 6 was considered the neuropathic baseline (NPB). Animals were then ranked and randomised (based on a Latin square design) to treatment groups according to the percentage change of the mean thresholds observed in the NPB compared to the HBL. NPB expressed as a percentage change from HBL was calculated as follows (HBL-NPB)/HBL*100. All behavioural assessment was done by an experimenter blinded to the identity of the treatment. Separate people were responsible for dosing and assessment/data analysis.
# [4] = target: FABP7 (Homo sapiens, UniProt O15540); assay: Fluorescence displacement binding assay (ANS probe)
# Protocol: Purified FABPs were incubated with 11-(dansylamino)undecanoic acid (DAUDA) (FABP3, FABP5) or 8-anilino-1-naphthalenesulfonic acid (ANS) (FABP7) in the presence or absence of FABP inhibitors (.01–200 μM) in the binding assay buffer. FABP4 binding was assessed using a commercially available kit (Cayman Chemical, Ann Arbor). In all cases, arachidonic acid (10 μM) was included to account for maximal probe displacement. Loss of fluorescence intensity was monitored with an F5 Filtermax Multi-Mode Microplate Reader (Molecular Devices, Sunnyvale) using the following excitation and emission wavelengths (DAUDA: ex./em.= 360/535 nm; ANS: ex./em. = 360/465 nm). Following background subtraction, the fluorescence intensity values were normalised and analyzed via a one-site binding model using the GraphPadPrism (version 9.2). Ki values were determined using the following equation: Ki= IC50/(1 + ([Probe]/Kd).
# [5] = system: oxaliplatin-induced mechanical allodynia; assay: Acute dosing in established OIPN, von-Frey paw withdrawal threshold; assay type: in vivo, male Sprague Dawley rats; details: for PWT response versus vehicle: 2 hours
# Protocol: OXA (Tocris Bioscience) was dissolved in 5% dextrose (Sigma-Aldrich) and administered intraperitoneally (IP) at a volume of 6 mL/kg. […] AM251 (CB1 antagonist; Tocris Bioscience), AM630 (CB2 antagonist; Tocris Bioscience), GW6471 (PPARα antagonist; Tocris Bioscience), and AMG9810 (TRPV1 antagonist; Tocris Bioscience) were dissolved in saline with 4% dimethyl sulfoxide and delivered IP. Male Sprague Dawley rats (150–210 g) were housed in groups of 4 in intra-ventilated Perspex home cages. Humidity, temperature (21 ± 1 °C), and lighting (light-dark cycle of 12:12 hours) were controlled and maintained in the home cages, with food and water available ad libitum. Rats acclimatised to the home cages for at least 1 week. All experiments were carried out according to the Animals (Scientific Procedures) Act, 1986 (U.K. Government Home Office). The study was performed under the Home Office project licence number PP0847012. OIPN was established with a single dose of OXA (10 mg/kg, IP). […] Tactile allodynia (primary outcome measure) was assessed using paw withdrawal threshold (PWT), a measure of pain sensitivity. PWT was evaluated using calibrated von-Frey monofilaments (Touch-Test Sensory Evaluator; Scientific Marketing Associates) applied to the plantar surface of the left hind paw. PWT was determined by increasing and decreasing stimulus intensity and estimated using Dixon’s up-down method.[38],[39] To acquire baseline readings, pain behaviour was assessed on 3 consecutive days (Days −3, −2, −1). The mean of Day −2 and Day −1 was considered the healthy baseline (HBL) prior to OIPN induction. On Days 5 and 6 after OXA injection, thresholds were reassessed. The mean of Days 5 and 6 was considered the neuropathic baseline (NPB). Animals were then ranked and randomised (based on a Latin square design) to treatment groups according to the percentage change of the mean thresholds observed in the NPB compared to the HBL. NPB expressed as a percentage change from HBL was calculated as follows (HBL-NPB)/HBL*100. All behavioural assessment was done by an experimenter blinded to the identity of the treatment. Separate people were responsible for dosing and assessment/data analysis.
# [6] = system: paclitaxel-induced peripheral neuropathy; details: male and female rats, similar efficacy; cited from earlier work
# [7] = system: oxaliplatin-induced thermal hyperalgesia; assay: Prevention of OIPN, cold plate latency; assay type: in vivo, male Sprague Dawley rats; details: 25 mg/kg BID, P < .001
# Protocol: as §2
# Pain measurements were made on Days 5/6 (when neuropathy has normally developed) and at the end of the study. […] Terminal plasma samples were taken for bioanalysis and proteomics (Somalogic). […]
# Thermal hyperalgesia was assessed using a cold plate (Bioseb, France) set at a fixed temperature of 15 °C. Latency to the first escape behaviour from the plate was measured indicating discomfort to the thermal stimulation. […]
# To acquire baseline readings, pain behaviour was assessed on 3 consecutive days (Days −3, −2, −1). […] NPB expressed as a percentage change from HBL was calculated as follows (HBL-NPB)/HBL*100. […]
# Sequence of FABP7 (O15540 whole entry, species assumed): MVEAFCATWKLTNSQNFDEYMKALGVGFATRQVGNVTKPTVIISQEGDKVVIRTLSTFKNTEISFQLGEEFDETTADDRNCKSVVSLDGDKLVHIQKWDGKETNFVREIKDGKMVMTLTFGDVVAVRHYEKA
smiles,measurement,setting,value
"COc1ccccc1[C@@H]1[C@H](C(=O)O)[C@@H](c2ccccc2OC)[C@H]1C(=O)OC1Cc2ccccc2C1 [ART26.12, (+)–3-Indan-2-yloxycarbonyl-2,4-bis(2-methoxyphenyl)cyclobutanecarboxylic acid]",body weight on Day 5 versus Day 0,[1],significantly higher body weight than Day 0
same,mean plasma levels on Day 15,[2]; 10 mg/kg BID,4.49 ± .99 µM
same,mean plasma levels on Day 15,[2]; 25 mg/kg BID,7.45 ± 1.58 µM
same,PWT on Day 5/6 compared to HBL,"[3]; 10 mg/kg BID, P < .001",significantly lower PWTs
same,PWT on Day 5/6 compared to HBL,"[3]; 25 mg/kg BID, P < .05",significantly lower PWTs
same,PWT on Day 14 compared to HBL,[3]; ART26.12 10 or 25 mg/kg BID groups,neither the ART26.12 nor the pregabalin groups showed significant allodynia
same,Ki,[4],19 ± 1.81 µM
same,PWT response versus vehicle,[5]; 100 mg/kg PO co-administered with AM630 (CB2 antagonist) 3 mg/kg IP,not significantly different to vehicle
same,PWT response versus vehicle,[5]; 100 mg/kg PO co-administered with AMG9810 (TRPV1 antagonist) 3 mg/kg IP,not significantly different to vehicle
same,PWT response versus vehicle,[5]; 100 mg/kg PO co-administered with GW6471 (PPARα antagonist) 4 mg/kg IP,not significantly different to vehicle
same,PWT compared to ART26.12 alone,"[5]; 100 mg/kg PO co-treated with AM251 (CB1 antagonist) 3 mg/kg IP, P < .05",significantly reduced PWT
same,duration of acute attenuation of mechanical allodynia,"[5]; established OIPN, acute oral dosing",up to 8 hours
same,PWT compared to vehicle,"[5]; established OIPN, 50 mg/kg (P < .05), 75 mg/kg (P < .05), 100 mg/kg (P < .001) PO, 30 minutes and 2 hours post-dose",significantly increased PWT
same,PWT time course after single dose,"[5]; established OIPN, 100 mg/kg PO, at 30 minutes, 2, 3, 4 and 8 hours",significantly increased
same,PWT compared to vehicle-alone,"[5]; mechanism study, 100 mg/kg PO, 30 minutes or 2 hours, P < .01",significantly increased PWT
same,effect on paclitaxel-induced peripheral neuropathy,[6],prevents paclitaxel-induced peripheral neuropathy
same,cold plate latencies on Day 14 versus vehicle,[7],significantly higher cold plate latencies than the vehicle group
